Laboratory results: patent US20250306008A1, “PHARMACEUTICAL COMPOSITION FOR TREATING OR PREVENTING MALIGNANT BREAST CANCER” (KOREA ADVANCED INSTITUTE OF SCIENCE AND TECHNOLOGY, priority 2021, published 2025)

Tests used:
MDA-MB231 cells = assay: Tamoxifen drug response (Incucyte confluency) after BCL11A and HDAC1/2 inhibition; type: cell-based; details: tamoxifen 10 uM
Description: (§1) Briefly, it is as follows: Cells were plated in 1×10^4 cells (3 repetitions for each condition; triplicate), after 24 hours, the cells were treated with the tamoxifen drug (10 uM) and monitored by taking pictures at 3-hour intervals using Incucyte for 72 hours. After that, the confluency of the cells in the pictures was calculated and the sensitivity of the cells to various drugs was graphed.

BT20 cells = assay: as above; type: cell-based; details: tamoxifen 10 uM
Description: as §1

T47D cell line = assay: Tamoxifen drug response after BCL11A and HDAC1/2 overexpression; type: cell-based, human
Description: The present inventors confirmed the tamoxifen drug response in human breast cancer cell lines T47D and MCF7 upon overexpression (OE) of BCL11A and HDAC1/2.

breast cancer patients = assay: Patients' drug response to tamoxifen according to BCL11A and HDAC1/2 expression; set-up: species or system human; details: patient group with low expression of BCL11A and HDAC1/2 compared to the group with high expression

Compound | sensitivity of control cells (shScrambled) to Tamoxifen (MDA-MB231 cells; MDA-MB231 control cells (shScrambled), 72 hours) | sensitivity of control cells (shScrambled) to Tamoxifen (BT20 cells; BT20 control cells (shScrambled), 72 hours) | sensitivity to tamoxifen of overexpressing cells (T47D cell line; T47D cells overexpressing BCL11A-OE, HDAC1/2-OE, or both) | response of control cells to tamoxifen (T47D cell line; T47D control cells) | sensitivity of patient group to the tamoxifen drug (breast cancer patients) | sensitivity of treated cells to Tamoxifen (cell confluency) (MDA-MB231 cells; MDA-MB231, monitored 72 hours) | sensitivity of treated cells to Tamoxifen (cell confluency) (BT20 cells; BT20, monitored 72 hours)
CC/C(=C(\c1ccccc1)c1ccc(OCCN(C)C)cc1)c1ccccc1 [Tamoxifen, tamoxifen] | did not show sensitivity | did not show sensitivity | did not show sensitivity | responded | higher sensitivity | – | –
shBCL11A: shRNA (GCATAGACGATGGCACTGTTA; SEQ ID NO: 1) designed to target the BCL11A gene, used as the BCL11A inhibitor | – | – | – | – | – | some sensitivity | some sensitivity
